{"source": "patent US5250683A", "about": "“Certain substituted taxanes and pharmaceutical compositions containing them” (Florida State University, priority 1992, dated 1993)", "data": [{"tested_on": "tubulin", "assay": "Tubulin binding assay (Tubulin Assay), method of Parness et al.", "conditions": "compared to taxol and taxotere", "values": [{"smiles": "CC(=O)O[C@H]1C(=O)[C@@]2(C)[C@H]([C@H](OC(=O)c3ccccc3)[C@]3(O)C[C@H](OC(=O)[C@H](O)[C@@H](NC(=O)c4ccc(C)cc4)c4ccc(F)cc4)C(C)=C1C3(C)C)[C@]1(OC(C)=O)CO[C@@H]1C[C@@H]2O", "note": "[Example 20, N-debenzoyl-N-(4-methylbenzoyl)-3'-desphenyl-3'-(4-fluorophenyl) taxol]", "Tubulin Assay Init. Peak": 85, "Tubulin Assay Rel. Rate": 98}, {"smiles": "CC(=O)O[C@H]1C(=O)[C@@]2(C)[C@H]([C@H](OC(=O)c3ccccc3)[C@]3(O)C[C@H](OC(=O)[C@H](O)[C@@H](NC(=O)c4ccc(F)cc4)c4ccccc4)C(C)=C1C3(C)C)[C@]1(OC(C)=O)CO[C@@H]1C[C@@H]2O", "note": "[Example 16, N-debenzoyl-N-(4-fluorobenzoyl) taxol]", "Tubulin Assay Init. Peak": 66, "Tubulin Assay Rel. Rate": 90}, {"smiles": "COc1ccc([C@H](NC(=O)c2ccc(F)cc2)[C@@H](O)C(=O)O[C@H]2C[C@@]3(O)[C@@H](OC(=O)c4ccccc4)[C@@H]4[C@]5(OC(C)=O)CO[C@@H]5C[C@H](O)[C@@]4(C)C(=O)[C@H](OC(C)=O)C(=C2C)C3(C)C)cc1", "note": "[Example 21, N-debenzoyl-N-(4-fluorobenzoyl)-3'-desphenyl-3'-(4-methoxyphenyl) taxol]", "Tubulin Assay Init. Peak": 45, "Tubulin Assay Rel. Rate": 81}, {"smiles": "CC(=O)O[C@H]1C(=O)[C@@]2(C)[C@H]([C@H](OC(=O)c3ccccc3)[C@]3(O)C[C@H](OC(=O)[C@H](O)[C@@H](NC(=O)c4ccc(C(C)(C)C)cc4)c4ccc(Cl)cc4)C(C)=C1C3(C)C)[C@]1(OC(C)=O)CO[C@@H]1C[C@@H]2O", "note": "[Example 26, N-debenzoyl-N-(4-t-butylbenzoyl)-3'-desphenyl-3'-(4-chlorophenyl) taxol]", "Tubulin Assay Init. Peak": 13, "Tubulin Assay Rel. Rate": 23}, {"smiles": "CC(=O)O[C@H]1C(=O)[C@@]2(C)[C@H]([C@H](OC(=O)c3ccccc3)[C@]3(O)C[C@H](OC(=O)[C@H](O)[C@@H](NC(=O)c4ccc(Br)cc4)c4ccc(Cl)cc4)C(C)=C1C3(C)C)[C@]1(OC(C)=O)CO[C@@H]1C[C@@H]2O", "note": "[Example 25, N-debenzoyl-N-(4-bromobenzoyl)-3'-desphenyl-3'-(4-chlorophenyl) taxol]", "Tubulin Assay Init. Peak": 60, "Tubulin Assay Rel. Rate": 83}, {"smiles": "CC(=O)O[C@H]1C(=O)[C@@]2(C)[C@H]([C@H](OC(=O)c3ccccc3)[C@]3(O)C[C@H](OC(=O)[C@H](O)[C@@H](NC(=O)c4ccccc4)c4cccc5ccccc45)C(C)=C1C3(C)C)[C@]1(OC(C)=O)CO[C@@H]1C[C@@H]2O", "note": "[Example 1, 3'-desphenyl-3'-(1-naphthyl) taxol]", "Tubulin Assay Init. Peak": 0, "Tubulin Assay Rel. Rate": 0}, {"smiles": "CC(=O)O[C@H]1C(=O)[C@@]2(C)[C@H]([C@H](OC(=O)c3ccccc3)[C@]3(O)C[C@H](OC(=O)[C@H](O)[C@@H](NC(=O)c4ccc(F)cc4)c4ccc(F)cc4)C(C)=C1C3(C)C)[C@]1(OC(C)=O)CO[C@@H]1C[C@@H]2O", "note": "[Example 15, N-debenzoyl-N-(4-fluorobenzoyl)-3'-desphenyl-3'-(4-fluorophenyl) taxol]", "Tubulin Assay Init. Peak": 89, "Tubulin Assay Rel. Rate": 98}, {"smiles": "CC(=O)O[C@H]1C(=O)[C@@]2(C)[C@H]([C@H](OC(=O)c3ccccc3)[C@]3(O)C[C@H](OC(=O)[C@H](O)[C@@H](NC(=O)c4ccc(Cl)cc4)c4ccccc4)C(C)=C1C3(C)C)[C@]1(OC(C)=O)CO[C@@H]1C[C@@H]2O", "note": "[Example 10, N-debenzoyl-N-(4-chlorobenzoyl) taxol]", "Tubulin Assay Init. Peak": 75, "Tubulin Assay Rel. Rate": 90}, {"smiles": "COc1ccc(C(=O)N[C@@H](c2ccccc2)[C@@H](O)C(=O)O[C@H]2C[C@@]3(O)[C@@H](OC(=O)c4ccccc4)[C@@H]4[C@]5(OC(C)=O)CO[C@@H]5C[C@H](O)[C@@]4(C)C(=O)[C@H](OC(C)=O)C(=C2C)C3(C)C)cc1", "note": "[Example 14, N-debenzoyl-N-(4-methoxybenzoyl) taxol]", "Tubulin Assay Init. Peak": 95, "Tubulin Assay Rel. Rate": 99}, {"smiles": "CC(=O)O[C@H]1C(=O)[C@@]2(C)[C@H]([C@H](OC(=O)c3ccccc3)[C@]3(O)C[C@H](OC(=O)[C@H](O)[C@@H](NC(=O)c4ccccc4)c4ccccc4)C(C)=C1C3(C)C)[C@]1(OC(C)=O)CO[C@@H]1C[C@@H]2O", "note": "[Taxol, taxol, reference compound]", "Tubulin Assay Init. Peak": 100, "Tubulin Assay Rel. Rate": 98}]}]}
